The values below come from ChEMBL document CHEMBL1122687, “Sulfur analogues of psychotomimetic agents. 3. Ethyl homologues of mescaline and their monothio analogues” (1984).

For one assay, the species on record is Homo sapiens. Description: Psychotomimetic potency of compound relative to that of mescaline (Human potency of mescaline = 1 MU). It is filed as functional.
Molecule `CCOc1cc(CCN)cc(OC)c1SCC` returned a Relative activity of 4.
`CCOc1cc(CCN)cc(OCC)c1SCC` had a Relative activity below 1.
Same read-out and setting: to `CCOc1c(OC)cc(CCN)cc1OC` belongs 6; to `CCCCSc1c(OC)cc(CCN)cc1OC`, 3; to `CCOc1cc(CCN)cc(SC)c1OC`, below 1.
The same measure, in the same setting: to `CCCCOc1c(OC)cc(CCN)cc1OC` belongs 2; to `CCOc1cc(CCN)cc(SCC)c1OCC`, below 1.
As for `CCCSc1c(OC)cc(CCN)cc1OC`, the Relative activity is 16.
As for `CCOc1cc(CCN)cc(OC)c1OCC`, the Relative activity was 1.5.
The same measure, in the same setting: to `CCOc1cc(CCN)cc(SCC)c1OC` belongs below 1; to `CCOc1cc(CCN)cc(OCC)c1OC`, below 1.
In turn, `CCSc1c(OC)cc(CCN)cc1OC` registered a Relative activity of 20.
The same measure, in the same setting: with `COc1cc(CCN)cc(OC)c1SC` the figure was 12; with `CCCOc1cc(CCN)cc(OC)c1OC`, below 1; with `CCOc1cc(CCN)cc(OC)c1OC`, 1.
Still for that read-out and setting: to `CCOc1cc(CCN)cc(OCC)c1OCC` belongs below 1; to `CCOc1c(OC)cc(CCN)cc1SCC`, 2; to `CCCOc1c(OC)cc(CCN)cc1OC`, 10.
The same measure, in the same setting: with `CCSc1cc(CCN)cc(OC)c1OC` the figure was 6; with `CCOc1cc(CCN)cc(SC)c1OCC`, 2; with `CCOc1c(OC)cc(CCN)cc1SC`, 6.
The molecule `CCOc1cc(CCN)cc(OCC)c1SC` gave a Relative activity below 1.
`CCOc1cc(CCN)cc(OC)c1SC` came in with a Relative activity of 4.

The species named for a further assay is Homo sapiens. Description: Psychotomimetic potency of compound relative to that of mescaline(Human potency of mescaline = 1 MU). It is filed as functional.
With `COc1cc(CCN)cc(OC)c1OC` [MESCALINE], the Relative activity worked out at 1.
As for `COc1cc(CCN)cc(SC)c1OC`, the Relative activity worked out at 6.
